Results taken from PubChem BioAssay (NCI).
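48-hour exposure; five concentrations; linearly interpolated endpoints. Abbreviation: GI50, concentration required for 50% inhibition of growth. TGI: concentration producing complete growth inhibition.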

Assays:
Test in all cases: growth of human tumour cells (NCI), 48 h
[1] = test system: A498 renal
[2] = test system: CAKI-1 renal
[3] = test system: EKVX NSCLC
[4] = test system: K-562 leukemia
[5] = test system: MOLT-4 leukemia
[6] = test system: NCI-H23 lung
[7] = test system: NCI-H460 lung
[8] = test system: NCI/ADR-RES ovarian
[9] = test system: SF-295 CNS
[10] = test system: U251 CNS

## COc1c(O)cc2oc3cc(O)c(CC=C(C)C)c(O)c3c(=O)c2c1C/C=C(\C)CCC=C(C)C
[1]
  GI50: 5.96 µM
  TGI: 10.5 µM
[2]
  GI50: 4.69 µM
  TGI: 9.39 µM
[3]
  GI50: 4.89 µM
  TGI: 9.75 µM
[4]
  GI50: 7.29 µM
  TGI: 16.6 µM
[5]
  GI50: 6.11 µM
  TGI: 16.3 µM
[6]
  GI50: 6.6 µM
  TGI: 14.8 µM
[7]
  GI50: 5.66 µM
  TGI: 10.2 µM
[8]
  GI50: 5.99 µM
  TGI: 11.4 µM
[9]
  GI50: 4.88 µM
  TGI: 9.6 µM
[10]
  GI50: 5.89 µM
  TGI: 10.6 µM

## CCNCCNc1cc(-c2ccc(Cl)cc2)c(C#N)c2nc3ccccc3n12
[1]
  GI50: 2.01 µM
  TGI: 3.52 µM
[2]
  GI50: 1.63 µM
  TGI: 3.28 µM
[3]
  GI50: 1.6 µM
  TGI: 3.31 µM
[4]
  GI50: 1.29 µM
  TGI: 3.06 µM
[6]
  GI50: 1.85 µM
  TGI: 3.91 µM
[7]
  GI50: 1.79 µM
  TGI: 3.37 µM
[8]
  GI50: 1.85 µM
  TGI: 3.91 µM
[9]
  GI50: 1.72 µM
  TGI: 3.31 µM
[10]
  GI50: 1.7 µM
  TGI: 3.27 µM

## CC1=C(C(=O)Nc2ccc(F)c(Cl)c2)C(c2cccc(O)c2)NC(=S)N1 (stereo not given)
[1]
  GI50: 9.45 µM
  TGI: 33.5 µM
[2]
  GI50: > 50 µM
  TGI: > 50 µM
[3]
  GI50: 17.8 µM
  TGI: > 50 µM
[4]
  GI50: 16 µM
  TGI: 42.5 µM
[6]
  GI50: 19.2 µM
  TGI: > 50 µM
[7]
  GI50: 22.8 µM
  TGI: > 50 µM
[8]
  GI50: > 50 µM
  TGI: > 50 µM
[9]
  GI50: 18 µM
  TGI: > 50 µM
[10]
  GI50: 16.6 µM
  TGI: > 50 µM

## CS(=O)(=O)c1ccc(Oc2nccc(-c3c(-c4ccc(F)cc4)ncn3C3CCNCC3)n2)cc1
[1]
  GI50: > 25 µM
  TGI: > 25 µM
[2]
  GI50: > 25 µM
  TGI: > 25 µM
[3]
  GI50: > 25 µM
  TGI: > 25 µM
[4]
  GI50: > 9.38 µM
  TGI: > 14.9 µM
[5]
  GI50: > 12.9 µM
  TGI: > 18.9 µM
[7]
  GI50: > 25 µM
  TGI: > 25 µM
[8]
  GI50: > 25 µM
  TGI: > 25 µM
[9]
  GI50: > 25 µM
  TGI: > 25 µM
[10]
  GI50: > 25 µM
  TGI: > 25 µM

## COc1ccc(-c2nc3sccn3c2/C=C/C(=O)c2cc(OC)c(OC)c(OC)c2)cc1OC
[1]
  GI50: 2.6 µM
  TGI: 8.2 µM
[2]
  GI50: 3.01 µM
  TGI: > 100 µM
[3]
  GI50: 3.92 µM
  TGI: > 100 µM
[4]
  GI50: 2.41 µM
  TGI: > 100 µM
[5]
  GI50: 2.07 µM
  TGI: 6.47 µM
[6]
  GI50: 2.16 µM
  TGI: 5.89 µM
[7]
  GI50: 1.99 µM
  TGI: 3.76 µM
[8]
  GI50: 2.27 µM
  TGI: 5.98 µM
[9]
  GI50: 3.08 µM
  TGI: 24 µM

## COc1cc(/C=C2\CC(C)CC3C2=NN(c2ccccc2)C3c2cc(OC)c(OC)c(OC)c2)cc(OC)c1OC (stereo not given)
[1]
  GI50: 13.5 µM
  TGI: 42.5 µM
[2]
  GI50: 26.7 µM
  TGI: > 100 µM
[3]
  GI50: 13.5 µM
  TGI: > 100 µM
[4]
  GI50: 6.4 µM
  TGI: > 100 µM
[5]
  GI50: 13 µM
  TGI: > 100 µM
[7]
  GI50: 11.1 µM
  TGI: 28.4 µM
[8]
  GI50: 12.1 µM
  TGI: > 100 µM
[9]
  GI50: 10.3 µM
  TGI: 63.7 µM
[10]
  GI50: 9.77 µM
  TGI: 39 µM
